Assay results published in publication PMC10498670.

How the values were obtained:
[1] = Multicomponent nitrilium-trapping macrocyclisation: Pro NH + EtCHO (1.5 equiv) gives an iminium, Pinc (N-isocyanoimino)triphenylphosphorane (1.2 equiv) adds, C-terminal benzoate traps the nitrilium, then aza-Wittig to the 1,3,4-oxadiazole (18 h); settings: the molecule shown is the open-chain precursor, 1:1 DCE/MeCN, 25.0 mM, 50.0 °C, 12 steps
[2] = Multicomponent nitrilium-trapping macrocyclisation: Pro NH + EtCHO (1.5 equiv), Pinc2 (ethyl 2-isocyano-2-(triphenylphosphanylidene)acetate, 1.5 equiv), AcOH (0.1 equiv); carboxylate traps the nitrilium, then Wittig to the oxazole (18 h); settings: the molecule shown is the open-chain precursor, 1:1 DCE/MeCN, 25.0 mM, 50.0 °C, 12 steps

SMILES: Cc1cccc(NC(=O)CNC(=O)[C@H](CC(C)C)NC(=O)[C@H](C)NC(=O)CNC(=O)[C@@H]2CCCN2)c1C(=O)O [H-Pro-Gly-Ala-Leu-Gly-(2-amino-6-methylbenzoic acid)-OH]
- ring closure, overall yield ([1]; 22-membered ring): 18%
- ring closure, overall yield ([2]; 22-membered ring, 18.0 h): 0%

SMILES: CC(C)C[C@H](NC(=O)[C@H](C)NC(=O)CNC(=O)[C@@H]1CCCN1)C(=O)NCC(=O)Nc1ccccc1C(=O)O [H-Pro-Gly-Ala-Leu-Gly-(2-aminobenzoic acid)-OH]
- ring closure, overall yield ([1]; 22-membered ring): 15%
- ring closure, overall yield ([2]; 22-membered ring, 18.0 h): 0%

SMILES: Cc1c(NC(=O)CNC(=O)[C@H](CC(C)C)NC(=O)[C@H](C)NC(=O)CNC(=O)[C@@H]2CCCN2)cccc1C(=O)O [H-Pro-Gly-Ala-Leu-Gly-(3-amino-2-methylbenzoic acid)-OH]
- ring closure, overall yield ([1]; 23-membered ring): 25%
- ring closure, overall yield ([2]; 23-membered ring, 18.0 h): 23%

SMILES: CC(C)C[C@H](NC(=O)[C@H](C)NC(=O)CNC(=O)[C@@H]1CCCN1)C(=O)NCC(=O)Nc1cccc(C(=O)O)c1 [H-Pro-Gly-Ala-Leu-Gly-(3-aminobenzoic acid)-OH]
- ring closure, overall yield ([1]; 23-membered ring): 38%
- ring closure, overall yield ([2]; 23-membered ring, 18.0 h): 35%

SMILES: CC(C)C[C@H](NC(=O)[C@H](C)NC(=O)CNC(=O)[C@@H]1CCCN1)C(=O)NCC(=O)Nc1ccc(C(=O)O)c(Cl)c1 [H-Pro-Gly-Ala-Leu-Gly-(4-amino-2-chlorobenzoic acid)-OH]
- ring closure, overall yield ([1]; 24-membered ring): 17%
- ring closure, overall yield ([2]; 24-membered ring): 0%

SMILES: CC(C)C[C@H](NC(=O)[C@H](C)NC(=O)CNC(=O)[C@@H]1CCCN1)C(=O)NCC(=O)Nc1ccc(C(=O)O)cc1 [H-Pro-Gly-Ala-Leu-Gly-(4-aminobenzoic acid)-OH]
- ring closure, overall yield ([1]; 24-membered ring): 18%
- ring closure, overall yield ([2]; 24-membered ring): 0%

SMILES: CC(C)C[C@H](NC(=O)CNC(=O)[C@@H]1CCCN1)C(=O)N[C@@H](CC(=O)OC(C)(C)C)C(=O)N[C@H](C(=O)Nc1cccc(C(=O)O)c1)[C@@H](C)OC(C)(C)C [H-Pro-Gly-Leu-Asp(OtBu)-Thr(OtBu)-(3-aminobenzoic acid)-OH]
- ring closure, overall yield ([1]; 23-membered ring): 27%
- ring closure, overall yield ([2]; 23-membered ring, 18.0 h): 21%
